Data: EP1073651B1, “INDOLYL DERIVATIVES AS SEROTONERGIC AGENTS” (Wyeth, priority 1998, dated 1999)
Like-named read-outs stand apart in the source and are kept apart here.

Molecular target: T1, serotonin transporter (Rattus norvegicus, UniProt P31652)
T1 construct: from tissue; host or cells: frontal cortex membranes of male Sprague-Dawley rats
Test: Displacement of specifically bound 3H-paroxetine from rat cortical membranes (affinity for the serotonin transporter)
Format: binding
Procedure: The affinity of drugs for the serotonin transporter was determined by assessing the ability of agents to displace specifically bound 3H-paroxetine binding from rat cortical membranes. […] Briefly, frontal cortical membranes prepared from male S.D. rats were incubated with ^3H-paroxetine (0.1 nM) for 60 min at 25°C. All tubes also contained either vehicle, test compound (one to eight concentrations), or a saturating concentration of fluoxetine (10 µM) to define […]. All reactions are terminated by the addition of ice cold Tris buffer followed by rapid filtration using a Tom Tech filtration device to separate bound from free ^3H-paroxetine. […] Nonspecific binding was determined using fluoxetine.

[1] = compounds of formula 1, frontal cortical membranes from male S.D. rats, 3H-paroxetine 0.1 nM, 60 min at 25°C, Ki from IC50 by Cheng and Prusoff, read-out: Inhibition of [3H]-Paroxetine binding Ki

T1 sequence (P31652 whole entry): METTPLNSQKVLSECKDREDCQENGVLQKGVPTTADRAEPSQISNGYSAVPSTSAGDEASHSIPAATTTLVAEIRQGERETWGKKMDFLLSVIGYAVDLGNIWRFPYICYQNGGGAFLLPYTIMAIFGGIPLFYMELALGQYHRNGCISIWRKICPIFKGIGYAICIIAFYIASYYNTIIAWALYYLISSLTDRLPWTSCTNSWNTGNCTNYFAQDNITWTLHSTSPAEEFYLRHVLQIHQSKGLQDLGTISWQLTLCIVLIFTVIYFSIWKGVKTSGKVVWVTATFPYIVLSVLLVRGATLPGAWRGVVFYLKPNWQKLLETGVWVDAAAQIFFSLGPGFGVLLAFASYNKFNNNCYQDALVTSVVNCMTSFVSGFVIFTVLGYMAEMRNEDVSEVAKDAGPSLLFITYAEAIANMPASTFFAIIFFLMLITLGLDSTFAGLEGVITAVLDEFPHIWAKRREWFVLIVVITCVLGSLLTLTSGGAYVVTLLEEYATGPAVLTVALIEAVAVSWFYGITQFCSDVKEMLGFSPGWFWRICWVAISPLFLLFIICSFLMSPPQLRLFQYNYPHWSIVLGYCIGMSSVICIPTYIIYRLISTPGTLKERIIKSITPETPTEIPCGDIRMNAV

Compound | Ki [1] [nM] | Ki [nM]
COc1ccccc1N1CCN(CCN2CCC(Cc3c[nH]c4ccc(F)cc34)CC2)CC1 [Example 1, 5-Fluoro-3-(1-{2-[4-(2-methoxyphenyl)piperazin-1-yl]ethyl}piperidin-4-ylmethyl)-1H-indole] | 4.8 | 
COc1ccccc1N1CCN(CCN2CC=C(c3c[nH]c4ccc(F)cc34)CC2)CC1 [Example 7, 5-Fluoro-3-(1-{2-[4-(2-methoxyphenyl)piperazin-1-yl]ethyl} 1,2,3,6-tetrahydropyridin-4-yl)-1H-indole] |  | 19
COc1ccccc1N1CCN(CCN2CC=C(c3c[nH]c4ccccc34)CC2)CC1 [Example 6, 3-(1-{2-[4-(2-methoxyphenyl)piperazin-1-yl]ethyl} 1,2,3,6-tetrahydropyridin-4-yl)-1H-indole] |  | 10
COc1ccccc1N1CCN(CCCN2CCC(Cc3c[nH]c4ccc(F)cc34)CC2)CC1 [Example 3, 5-Fluoro-3-(1-{3-[4-(2-methoxyphenyl)piperazin-1-yl]propyl}piperidin-4-ylmethyl)-1H-indole] | 1.2 | 
